# Laboratory results from EP4722213A1, “NITROGEN-CONTAINING FUNCTIONAL GROUP-SUBSTITUTED PYRIDAZINOPYRIDONE DERIVATIVE AND USE THEREOF” (Sichuan Huiyu Pharmaceutical Co., Ltd., priority 2023, dated 2024).
# Counter-ions that a name gives are not always drawn.
# Target: T1, SOS1 (Homo sapiens, UniProt Q07889)
# T1 sequence (Q07889 1-1333): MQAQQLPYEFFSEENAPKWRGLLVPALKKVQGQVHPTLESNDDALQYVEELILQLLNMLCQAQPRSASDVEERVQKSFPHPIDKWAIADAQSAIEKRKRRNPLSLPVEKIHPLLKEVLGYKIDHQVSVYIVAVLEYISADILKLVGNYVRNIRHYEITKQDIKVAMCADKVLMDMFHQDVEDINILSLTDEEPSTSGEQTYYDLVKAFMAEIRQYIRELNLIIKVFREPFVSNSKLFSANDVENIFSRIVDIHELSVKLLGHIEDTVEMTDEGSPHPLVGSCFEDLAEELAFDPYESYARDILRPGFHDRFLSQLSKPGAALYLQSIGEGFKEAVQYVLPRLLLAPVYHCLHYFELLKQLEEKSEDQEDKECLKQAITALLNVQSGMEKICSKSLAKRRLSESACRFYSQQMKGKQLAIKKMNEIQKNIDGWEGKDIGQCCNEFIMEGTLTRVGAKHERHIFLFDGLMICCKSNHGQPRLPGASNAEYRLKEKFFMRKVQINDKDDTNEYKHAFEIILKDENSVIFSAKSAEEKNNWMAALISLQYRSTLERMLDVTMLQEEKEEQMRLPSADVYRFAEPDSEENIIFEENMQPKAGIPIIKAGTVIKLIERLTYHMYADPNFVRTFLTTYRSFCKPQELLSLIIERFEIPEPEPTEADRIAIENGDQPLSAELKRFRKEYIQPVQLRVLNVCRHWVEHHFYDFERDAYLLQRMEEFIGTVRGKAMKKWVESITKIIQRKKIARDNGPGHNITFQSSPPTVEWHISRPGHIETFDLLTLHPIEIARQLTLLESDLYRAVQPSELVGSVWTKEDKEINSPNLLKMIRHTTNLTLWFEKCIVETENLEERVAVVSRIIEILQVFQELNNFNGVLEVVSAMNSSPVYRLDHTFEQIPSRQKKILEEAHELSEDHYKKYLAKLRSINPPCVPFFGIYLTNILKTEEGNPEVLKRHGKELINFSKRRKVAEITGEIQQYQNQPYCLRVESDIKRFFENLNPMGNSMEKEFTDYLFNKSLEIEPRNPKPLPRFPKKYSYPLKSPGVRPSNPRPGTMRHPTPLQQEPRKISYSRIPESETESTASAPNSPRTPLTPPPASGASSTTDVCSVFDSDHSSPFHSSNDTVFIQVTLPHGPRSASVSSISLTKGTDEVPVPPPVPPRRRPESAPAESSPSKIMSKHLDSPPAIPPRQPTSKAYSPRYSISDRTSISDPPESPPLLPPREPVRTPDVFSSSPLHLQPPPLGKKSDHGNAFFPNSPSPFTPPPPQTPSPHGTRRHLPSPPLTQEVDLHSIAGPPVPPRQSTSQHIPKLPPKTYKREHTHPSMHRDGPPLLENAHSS
# Experiment: biochemical
row,Structure (SMILES),IC50
1,"C[C@@H](Nc1nnc(N2CC[C@H](CO)C2)c2cc(=O)n(C3(C)CC3)cc12)c1cccc(C(F)(F)F)c1 [Example 179, 1-((S)-3-(hydroxymethyl)pyrrolidin-1-yl)-6-(1-methylcyclopropyl)-4-(((R)-1-(3-(trifluoromethyl)phenyl)ethyl)amino)pyr ido[3,4-d]pyridazin-7(6H)-one formate]",6.4 nM
2,"C[C@@H](Nc1nnc(-n2nccn2)c2cc(=O)n(C3CC3)cc12)c1cccc(C(F)F)c1F [Example 32, (R)-6-cyclopropyl-4-((1-(3-(difluoromethyl)-2-fluorophenyl)ethyl)amino)-1-(2H-1,2,3-triazol-2-yl)pyrido[3,4-d]pyridazin-7(6H)-one]",25.5 nM
3,"CCn1cc2c(N[C@H](C)c3cccc(C(F)F)c3F)nnc(N3CCN(C)CC3)c2cc1=O [Example 116, (R)-4-((1-(3-(difluoromethyl)-2-fluorophenyl)ethyl)amino)-6-ethyl-1-(4-methylpiperazin-1-yl)pyrido[3,4-d]pyridazin-7(6H)-one]",6.6 nM
4,"C[C@@H](Nc1nnc(N2CC3COCC3C2)c2cc(=O)n(C3(C)CC3)cc12)c1cccc(C(F)F)c1F (stereo partly drawn) [Example 205, 4-(((R)-1-(3-(difluoromethyl)-2-fluorophenyl)ethyl)amino)-6-(1-methylcyclopropyl)-1-(tetrahydro-1H-furo[3,4-c]pyrrol-5(3H)-yl)pyrido[3,4-d]pyridazin-7(6H)-one]",4.1 nM
5,"C[C@@H](Nc1nnc(N2CCN3CCCCC3C2)c2cc(=O)n(C3(C)CC3)cc12)c1cccc(C(F)F)c1F (stereo partly drawn) [Example 203, 4-(((R)-1-(3-(difluoromethyl)-2-fluorophenyl)ethyl)amino)-6-(1-methylcyclopropyl)-1-(octahydro-2H-pyrido[1,2-a]pyrazin-2-yl)pyrido[3,4-d]pyridazin-7(6H)-one]",3.8 nM
6,"Cc1c(C#N)cccc1[C@@H](C)Nc1nnc(N2CCC(F)(F)C2)c2cc(=O)n(C3CC3)cc12 [Example 42, (R)-3-(1-((6-cyclopropyl-1-(3,3-difluoropyrrolidin-1-yl)-7-oxo-6,7-dihydropyrido[3,4-d]pyridazin-4-yl)amino)ethyl)-2-methylbenzonitrile]",51.3 nM
7,"Cc1c([C@@H](C)Nc2nnc(N3CCN(C(C)(C)C)CC3)c3cc(=O)n(C4(C)CC4)cc23)cccc1C(F)(F)F [Example 95, (R)-1-(4-(tert-butyl)piperazin-1-yl)-4-((1-(2-methyl-3-(trifluoromethyl)phenyl)ethyl)amino)-6-(1-methylcyclopropyl) pyrido[3,4-d]pyridazin-7(6H)-one]",6.8 nM
8,"C[C@@H](Nc1nnc(NCC(F)F)c2cc(=O)n(C3(C)CC3)cc12)c1cccc(C(F)F)c1F [Example 134, (R)-1-((2,2-difluoroethyl)amino)-4-((1-(3-(difluoromethyl)-2-fluorophenyl)ethyl)amino)-6-(1-methylcyclopropyl) pyrido[3,4-d]pyridazin-7(6H)-one]",9.5 nM
9,"Cc1cc(N)cc([C@@H](C)Nc2nnc(N3CCN(C)CC3)c3cc(=O)n(C4(C)CC4)cc23)c1F [Example 152, (R)-4-((1-(5-amino-2-fluoro-3-methylphenyl)ethyl)amino)-6-(1-methylcyclopropyl)-1-(4-methylpiperazin-1-yl)pyrido[3,4-d]pyridazin-7(6H)-one]",4.2 nM
10,"C[C@@H](Nc1nnc(N2CC(CO)C2)c2cc(=O)n(C3(C)CC3)cc12)c1cccc(C(F)(F)CO)c1 [Example 229, (R)-4-((1-(3-(1,1-difluoro-2-hydroxyethyl)phenyl)ethyl)amino)-1-(3-(hydroxymethyl)azetidin-1-yl)-6-(1-methylcyclopropyl) pyrido[3,4-d]pyridazin-7(6H)-one]",4.5 nM
11,"Cc1c([C@@H](C)Nc2nnc(N3CCN(C4CC4)CC3)c3cc(=O)n(C4(C)CC4)cc23)cccc1C(F)(F)F [Example 92, (R)-1-(4-cyclopropylpiperazin-1-yl)-4-((1-(2-methyl-3-(trifluoromethyl)phenyl)ethyl)amino)-6-(1-methylcyclopropyl) pyrido[3,4-d]pyridazin-7(6H)-one]",10.2 nM
12,"C[C@@H](Nc1nnc(N2CCC3(CCCC3)CC2)c2cc(=O)n(C3(C)CC3)cc12)c1cccc(C(F)F)c1F [Example 185, (R)-4-((1-(3-(difluoromethyl)-2-fluorophenyl)ethyl)amino)-6-(1-methylcyclopropyl)-1-(8-azaspiro[4.5]decan-8-yl)pyrido[3,4-d]pyridazin-7(6H)-one]",84.3 nM
13,"C[C@@H](Nc1nnc(N2CCN(C3CC3)CC2)c2cc(=O)n(C3CC(F)(F)C3)cc12)c1cccc(C(F)F)c1F [Example 103, (R)-6-(3,3-difluorocyclobutyl)-4-((1-(3-(difluoromethyl)-2-fluorophenyl)ethyl)amino)-1-(4-cyclopropylpiperazin-1-yl)pyrido[3,4-d]pyridazin-7(6H)-one]",5.9 nM
14,"Cc1c(C#N)cccc1[C@@H](C)Nc1nnc(N2CCN(C3CCC3)CC2)c2cc(=O)n(C3CC3)cc12 [Example 100, (R)-3-(1-((1-(4-cyclobutylpiperazin-1-yl)-6-cyclopropyl-7-oxo-6,7-dihydropyrido[3,4-d]pyridazin-4-yl)amino)ethyl)-2-methylbenzonitrile]",10.9 nM
15,"C[C@@H](Nc1nnc(NC2CN3CCC2CC3)c2cc(=O)n(C3(C)CC3)cc12)c1cccc(C(F)F)c1F (stereo partly drawn) [Example 133, 4-(((R)-1-(3-(difluoromethyl)-2-fluorophenyl)ethyl)amino)-6-(1-methylcyclopropyl)-1-(quinuclidin-3-ylamino)pyrido[3,4-d]pyridazin-7(6H)-one]",6.5 nM
16,"C[C@@H](Nc1nnc(N2CC(CO)C2)c2cc(=O)n(C3(C)CC3)cc12)c1cccc(C(F)(F)F)c1 [Example 177, (R)-1-(3-(hydroxymethyl)azetidin-1-yl)-6-(1-methylcyclopropyl)-4-((1-(3-(trifluoromethyl)phenyl)ethyl)amino)pyr ido[3,4-d]pyridazin-7(6H)-one formate]",6.2 nM
17,"C[C@@H](Nc1nnc(-n2ccnc2)c2cc(=O)n(C3(C)CC3)cc12)c1cccc(C(F)F)c1F [Example 34, (R)-4-((1-(3-(difluoromethyl)-2-fluorophenyl)ethyl)amino)-1-(1H-imidazol-1-yl)-6-(1-methylcyclopropyl) pyrido[3,4-d]pyridazin-7(6H)-one]",14.4 nM
18,"C[C@@H]1CCCN1c1nnc(N[C@H](C)c2cccc(C(F)F)c2F)c2cn(C3CC3)c(=O)cc12 [Example 25, 6-cyclopropyl-4-(((R)-1-(3-(difluoromethyl)-2-fluorophenyl)ethyl)amino)-1-((R)-2-methylpyrrolidin-1-yl)pyrido[3,4-d]pyridazin-7(6H)-one]",12 nM
19,"Cc1c(C#N)cccc1[C@@H](C)Nc1nnc(N2CCC2)c2cc(=O)n(C3CC3)cc12 [Example 36, (R)-3-(1-((1-(azetidin-1-yl)-6-cyclopropyl-7-oxo-6,7-dihydropyrido[3,4-d]pyridazin-4-yl)amino)ethyl)-2-methylbenzonitrile]",10.7 nM
20,"CCN1CCN(c2nnc(N[C@H](C)c3cccc(C(F)F)c3F)c3cn(CC)c(=O)cc23)CC1 [Example 117, (R)-4-((1-(3-(difluoromethyl)-2-fluorophenyl)ethyl)amino)-6-ethyl-1-(4-ethylpiperazin-1-yl)pyrido[3,4-d]pyridazin-7(6H)-one]",8.2 nM
